Measured values reported in patent US12077503B2, “Substituted cyclic amides and their use as herbicides” (FMC CORPORATION, priority 2015, dated 2024).

Tests used:
Format in all cases: in vivo
[1] = system: barnyardgrass (Echinochloa crus-galli); assay: Test G Pre-Emergence Protocol; conditions: Echinochloa crus-galli, pre-emergence, 312 h, evaluated after 13 days; for pest or weed control at 15.625 g/ha: 15.625 g ai/ha; for pest or weed control at 15.625 g/ha / pest or weed control at 250 g/ha: read-out: Barnyardgrass damage rating (100=total damage to plant; 0=no damage to plant); for pest or weed control at 62.5 g/ha: 62.5 g ai/ha, 100=total damage to plant, 0=no damage to plant, read-out: Barnyardgrass damage rating; for pest or weed control at 250 g/ha: 250 g ai/ha
Procedure, shortened: (§1)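 Spraying took place one day after sowing, at 15.625, 62.5 or 250 g/ha, using an acetone/water (50:50) spray solution containing 0.5% Tween 20. Plants were kept under glasshouse conditions (24/16 °C, 14 h light, 65% humidity, watered twice daily), and injury was rated 0–100 at day 13.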

corn (Zea mays) [2] = assay: Test G Pre-Emergence Protocol; conditions: Zea mays, pre-emergence, 312 h, evaluated after 13 days; for plant injury at 15.625 g/ha: 15.625 g ai/ha; for plant injury at 15.625 g/ha / plant injury at 250 g/ha: read-out: Corn damage rating (100=total damage to plant; 0=no damage to plant); for plant injury at 62.5 g/ha: 62.5 g ai/ha, 100=total damage to plant, 0=no damage to plant, read-out: Corn damage rating; for plant injury at 250 g/ha: 250 g ai/ha
Procedure, shortened: as §1

[3] = system: giant foxtail (Setaria faberi); assay: Test G Pre-Emergence Protocol; conditions: Setaria faberi, pre-emergence, 312 h, evaluated after 13 days; for pest or weed control at 15.625 g/ha: 15.625 g ai/ha; for pest or weed control at 15.625 g/ha / pest or weed control at 250 g/ha: read-out: Foxtail, Giant damage rating (100=total damage to plant; 0=no damage to plant); for pest or weed control at 62.5 g/ha: 62.5 g ai/ha, 100=total damage to plant, 0=no damage to plant, read-out: Foxtail, Giant damage rating; for pest or weed control at 250 g/ha: 250 g ai/ha
Procedure, shortened: as §1

[4] = system: ivy-leaved morning glory (Ipomoea hederacea); assay: Test G Pre-Emergence Protocol; conditions: Ipomoea, pre-emergence, 312 h, evaluated after 13 days; for pest or weed control at 15.625 g/ha: 15.625 g ai/ha; for pest or weed control at 15.625 g/ha / pest or weed control at 250 g/ha: read-out: Morningglory, Ivy-leaved damage rating (100=total damage to plant; 0=no damage to plant); for pest or weed control at 62.5 g/ha: 62.5 g ai/ha, 100=total damage to plant, 0=no damage to plant, read-out: Morningglory, Ivy-leaved damage rating; for pest or weed control at 250 g/ha: 250 g ai/ha
Procedure, shortened: as §1

[5] = system: redroot pigweed (Amaranthus retroflexus); assay: Test G Pre-Emergence Protocol; conditions: Amaranthus retroflexus, pre-emergence, 312 h, evaluated after 13 days; for pest or weed control at 15.625 g/ha: 15.625 g ai/ha; for pest or weed control at 15.625 g/ha / pest or weed control at 250 g/ha: read-out: Pigweed, Redroot damage rating (100=total damage to plant; 0=no damage to plant); for pest or weed control at 62.5 g/ha: 62.5 g ai/ha, 100=total damage to plant, 0=no damage to plant, read-out: Pigweed, Redroot damage rating; for pest or weed control at 250 g/ha: 250 g ai/ha
Procedure, shortened: as §1

[6] = system: velvetleaf (Abutilon theophrasti); assay: Test G Pre-Emergence Protocol; conditions: Abutilon theophrasti, pre-emergence, 312 h, evaluated after 13 days; for pest or weed control at 15.625 g/ha: 15.625 g ai/ha; for pest or weed control at 15.625 g/ha / pest or weed control at 250 g/ha: read-out: Velvetleaf damage rating (100=total damage to plant; 0=no damage to plant); for pest or weed control at 62.5 g/ha: 62.5 g ai/ha, 100=total damage to plant, 0=no damage to plant, read-out: Velvetleaf damage rating; for pest or weed control at 250 g/ha: 250 g ai/ha
Procedure, shortened: as §1

[7] = system: barnyardgrass (Echinochloa crus-galli); assay: Test G Post-Emergence Protocol; conditions: Echinochloa crus-galli, post-emergence, 312 h, read-out: Barnyardgrass damage rating; for pest or weed control at 15.625 g/ha: 15.625 g ai/ha, evaluated after 13 days (100=total damage to plant; 0=no damage to plant); for pest or weed control at 62.5 g/ha: 62.5 g ai/ha; for pest or weed control at 62.5 g/ha / pest or weed control at 250 g/ha: evaluated after 13 days, 100=total damage to plant, 0=no damage to plant; for pest or weed control at 250 g/ha: 250 g ai/ha
Procedure, shortened: (§2)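 Sow in soil; grow 8 d (24/16 °C, 14 h light, 65% humidity); spray 15.625/62.5/250 g/ha in acetone:water 50:50 + 0.5% Tween 20; grow on, water twice daily; score damage 0–100 at 13 d.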

corn (Zea mays) [8] = assay: Test G Post-Emergence Protocol; conditions: Zea mays, post-emergence, 312 h, read-out: Corn damage rating; for plant injury at 15.625 g/ha: 15.625 g ai/ha, evaluated after 13 days (100=total damage to plant; 0=no damage to plant); for plant injury at 62.5 g/ha: 62.5 g ai/ha; for plant injury at 62.5 g/ha / plant injury at 250 g/ha: evaluated after 13 days, 100=total damage to plant, 0=no damage to plant; for plant injury at 250 g/ha: 250 g ai/ha
Procedure, shortened: as §2

[9] = system: giant foxtail (Setaria faberi); assay: Test G Post-Emergence Protocol; conditions: Setaria faberi, post-emergence, 312 h, read-out: Foxtail, Giant damage rating; for pest or weed control at 15.625 g/ha: 15.625 g ai/ha, evaluated after 13 days (100=total damage to plant; 0=no damage to plant); for pest or weed control at 62.5 g/ha: 62.5 g ai/ha; for pest or weed control at 62.5 g/ha / pest or weed control at 250 g/ha: evaluated after 13 days, 100=total damage to plant, 0=no damage to plant; for pest or weed control at 250 g/ha: 250 g ai/ha
Procedure, shortened: as §2

[10] = system: ivy-leaved morning glory (Ipomoea hederacea); assay: Test G Post-Emergence Protocol; conditions: Ipomoea, post-emergence, 312 h, read-out: Morningglory, Ivy-leaved damage rating; for pest or weed control at 15.625 g/ha: 15.625 g ai/ha, evaluated after 13 days (100=total damage to plant; 0=no damage to plant); for pest or weed control at 62.5 g/ha: 62.5 g ai/ha; for pest or weed control at 62.5 g/ha / pest or weed control at 250 g/ha: evaluated after 13 days, 100=total damage to plant, 0=no damage to plant; for pest or weed control at 250 g/ha: 250 g ai/ha
Procedure, shortened: as §2

[11] = system: redroot pigweed (Amaranthus retroflexus); assay: Test G Post-Emergence Protocol; conditions: Amaranthus retroflexus, post-emergence, 312 h, read-out: Pigweed, Redroot damage rating; for pest or weed control at 15.625 g/ha: 15.625 g ai/ha, evaluated after 13 days (100=total damage to plant; 0=no damage to plant); for pest or weed control at 62.5 g/ha: 62.5 g ai/ha; for pest or weed control at 62.5 g/ha / pest or weed control at 250 g/ha: evaluated after 13 days, 100=total damage to plant, 0=no damage to plant; for pest or weed control at 250 g/ha: 250 g ai/ha
Procedure, shortened: as §2

[12] = system: velvetleaf (Abutilon theophrasti); assay: Test G Post-Emergence Protocol; conditions: Abutilon theophrasti, post-emergence, 312 h, read-out: Velvetleaf damage rating; for pest or weed control at 15.625 g/ha: 15.625 g ai/ha, evaluated after 13 days (100=total damage to plant; 0=no damage to plant); for pest or weed control at 62.5 g/ha: 62.5 g ai/ha; for pest or weed control at 62.5 g/ha / pest or weed control at 250 g/ha: evaluated after 13 days, 100=total damage to plant, 0=no damage to plant; for pest or weed control at 250 g/ha: 250 g ai/ha
Procedure, shortened: as §2

Structure (SMILES) | pest or weed control at 15.625 g/ha [1] [%] | pest or weed control at 62.5 g/ha [1] [%] | pest or weed control at 250 g/ha [1] [%] | plant injury at 15.625 g/ha (corn (Zea mays) [2]) [%] | plant injury at 62.5 g/ha (corn (Zea mays) [2]) [%] | plant injury at 250 g/ha (corn (Zea mays) [2]) [%] | pest or weed control at 15.625 g/ha [3] [%] | pest or weed control at 62.5 g/ha [3] [%] | pest or weed control at 250 g/ha [3] [%] | pest or weed control at 15.625 g/ha [4] [%] | pest or weed control at 62.5 g/ha [4] [%] | pest or weed control at 250 g/ha [4] [%] | pest or weed control at 15.625 g/ha [5] [%] | pest or weed control at 62.5 g/ha [5] [%] | pest or weed control at 250 g/ha [5] [%] | pest or weed control at 15.625 g/ha [6] [%] | pest or weed control at 62.5 g/ha [6] [%] | pest or weed control at 250 g/ha [6] [%] | pest or weed control at 15.625 g/ha [7] [%] | pest or weed control at 62.5 g/ha [7] [%] | further results
CCOc1c(Cl)cc(C2CN(C)C(=O)C2C(=O)Nc2cccc(F)c2F)cc1OC (stereo not drawn) [Compound 1721] | 0 | 50 | 80 | 10 | 0 | 0 | 30 | 60 | 90 | 0 | 0 | 0 | 0 | 0 | 0 | 0 | 0 | 0 | 0 | 30 | pest or weed control at 250 g/ha [7]: 80%; plant injury at 15.625 g/ha (corn (Zea mays) [8]): 0%; plant injury at 62.5 g/ha (corn (Zea mays) [8]): 10%; plant injury at 250 g/ha (corn (Zea mays) [8]): 10%; pest or weed control at 15.625 g/ha [9]: 0%; pest or weed control at 62.5 g/ha [9]: 50%; pest or weed control at 250 g/ha [9]: 80%; pest or weed control at 15.625 g/ha [10]: 0%; pest or weed control at 62.5 g/ha [10]: 40%; pest or weed control at 250 g/ha [10]: 70%; pest or weed control at 15.625 g/ha [11]: 0%; pest or weed control at 62.5 g/ha [11]: 0%; pest or weed control at 250 g/ha [11]: 0%; pest or weed control at 15.625 g/ha [12]: 0%; pest or weed control at 62.5 g/ha [12]: 0%; pest or weed control at 250 g/ha [12]: 0%
CN1C[C@H](c2cccc(C(F)(F)F)c2)[C@@H](C(=O)Nc2cnccc2[N+](=O)[O-])C1=O (racemic) [Compound 1731] | 0 | 0 | 0 | 0 | 0 | 0 | 0 | 0 | 20 | 0 | 0 | 0 | 0 | 0 | 0 | 0 | 0 | 0 | 0 | 0 | pest or weed control at 250 g/ha [7]: 0%; plant injury at 15.625 g/ha (corn (Zea mays) [8]): 0%; plant injury at 62.5 g/ha (corn (Zea mays) [8]): 0%; plant injury at 250 g/ha (corn (Zea mays) [8]): 0%; pest or weed control at 15.625 g/ha [9]: 0%; pest or weed control at 62.5 g/ha [9]: 0%; pest or weed control at 250 g/ha [9]: 0%; pest or weed control at 15.625 g/ha [10]: 0%; pest or weed control at 62.5 g/ha [10]: 0%; pest or weed control at 250 g/ha [10]: 0%; pest or weed control at 15.625 g/ha [11]: 0%; pest or weed control at 62.5 g/ha [11]: 0%; pest or weed control at 250 g/ha [11]: 10%; pest or weed control at 15.625 g/ha [12]: 0%; pest or weed control at 62.5 g/ha [12]: 0%; pest or weed control at 250 g/ha [12]: 0%
